Data set [1] concerns Mycobacterium bovis AN5. Kind of data set: microbe, parasite or virus in culture. Format: cell-based. The settings on record: for MIC: Mycobacterium tuberculosis variant bovis, AN5, 168 h, read-out: Antimycobacterial activity, M. bovis MIC; for Antimycobacterial activity, M. bovis MIC: AN5 strain, Alamar Blue, 7 days incubation, average and standard deviation of triplicate assays. A general note: Resazurin is reduced to fluorescent resorufin, in cell work by metabolically active cells.

For data set [2], the system named is Mycobacterium tuberculosis H37Rv. The data set can be described thus: Minimum Inhibitory Concentration by the Alamar Blue technique, M. tuberculosis. Format: cell-based. The settings on record: for MIC: Mycobacterium tuberculosis, 168 h, read-out: Antimycobacterial activity, M. tuberculosis MIC.
Data set [3] has as its system J774A mouse monocyte macrophage cell line. Kind of data set: Cytotoxic activity on macrophages, alamar blue. In kind it is cell-based. The conditions noted are these: J774A CC50 versus mycobacterial MIC. Here is the method: (§1) The J774A mouse monocyte macrophage cell line was grown in RPMI medium (Sigma, R0883) supplemented with 10 % heat inactivated fetal bovine serum (FBS, Sigma-Aldrich), 1 % MEM-NEAA medium (Gibco, 11140–050) and a mixture of penicillin-streptomycin to 1 %. The cell culture was maintained at 37 °C with a partial atmosphere of 5 % CO2, the evaluations were carried out when 80–90 % confluence was reached.
(§2) In a 96 well plate 50,000 cells per well were deposited in a final volume of 100 μL, and incubated for 24 h at 37 °C in partial CO2 atmosphere to promote cell adhesion for an approximate 80 % confluence. Chemical compounds to be analyzed were diluted in DMSO; cytotoxic activity was evaluated by adding twofold serial dilutions of the compound to be analyzed, starting at a 1600 μg/mL concentration; the plates were further incubated (24 h). For cytotoxic evaluation, alamar blue (Sigma, R7017) solution was added (10 % v/v) and after 3 h, results were evaluated by determination of the change in color using a fluorimeter (590 nm). For negative control, cells were incubated with 500 μg/mL concentration of DMSO (Sigma, 472301), which was the highest concentration. Cytotoxic concentration (CC50) was determined using probit non-linear regression.

A short description of data set [4]: Cytotoxic activity on macrophages, alamar blue. Format: cell-based, mouse. The settings on record: mouse, J774A monocyte macrophage cell line; J774 macrophages, 24 h; average and standard deviation of three assays. Here is the method: as §1, §2
Data set [5] has as its system M. tuberculosis. Details: method as in PMID 17924309. The conditions noted are these: cited from earlier work.
Where [6] appears, read: H37Rv strain, Alamar Blue, 7 days incubation, average and standard deviation of triplicate assays.

SMILES strings stand for the structures. ≈ marks a conversion by molar mass, not a printed value. Like-named read-outs stand apart in the source and are kept apart here.

On to `C=C1CCC2(C(C)C)CC12` (centres unmarked) [Sabinene], for which the MIC in data set [1] was found to be 25 µg/mL (≈ 184 µM); in data set [2] (setting [6]), 33.3 ± 14.4 µg/mL (≈ 245 µM).
For the compound `C=C(C)[C@H]1CC=C(C)CC1` [(+) Limonene], the values for the MIC in data set [1] and in data set [2] (setting [6]) were 41.7 ± 14.4 µg/mL (≈ 306 µM) and 25 µg/mL (≈ 184 µM), respectively.
The like results for `C=C(C)[C@@H]1CC=C(C)C(=O)C1` [(+) Carvone] were, in that order, 41.3 ± 15 µg/mL (≈ 275 µM) and 20.8 ± 7.22 µg/mL (≈ 139 µM).
Broadly, the CC50 is the concentration giving 50% cytotoxicity. The low end stands for harm at low concentration, the high end for better tolerance by the cells. In the case of `Cc1ccc(C(C)C)cc1O` [Carvacrol], in data set [1], the “Antimycobacterial activity, M. bovis MIC” value is 5.20 ± 1.81^DE μg/mL and the MIC is 5.2 µg/mL (≈ 34.6 µM). In data set [3], the “CC50 concentration higher than the concentration needed for mycobacterial elimination” value is “approximately 500 fold”. In data set [4], this compound gave a CC50 at 24 h of 900 ± 86.6 µg/mL (≈ 5990 µM) and a CC90 at 24 h of 1950 ± 107 µg/mL (≈ 13000 µM). In data set [2] (setting [6]), the “Antimycobacterial activity, M. tuberculosis MIC” value is on record as 2.02 ± 0.88^FG μg/mL and the MIC came out at 2.02 µg/mL (≈ 13.4 µM).
Regarding `O=C/C=C/c1ccccc1` [Cinnamaldehyde], in data set [1], the “Antimycobacterial activity, M. bovis MIC” value is 12.50 ± 0.00^DE μg/mL and the MIC was 12.5 µg/mL (≈ 94.6 µM). In data set [2] (setting [6]), the “Antimycobacterial activity, M. tuberculosis MIC” value is given as 3.12 ± 0.00^EFG μg/mL and the MIC came out at 3.12 µg/mL (≈ 23.6 µM).
In the case of `C/C=C/c1ccc(OC)cc1` [t-Anethole], the MIC in data set [1] came out at 58.3 ± 14.4 µg/mL (≈ 394 µM); in data set [2] (setting [6]) it was 20.8 ± 7.22 µg/mL (≈ 141 µM).
The like results for `CC12CCC(CC1=O)C2(C)C` (centres unmarked) [Camphor] were, in that order, 50 µg/mL (≈ 328 µM) and 41.7 ± 14.4 µg/mL (≈ 274 µM).
Taken in the same sequence, the figures for `C=CCc1ccc(OC)cc1` [Estragole] were 25 µg/mL (≈ 169 µM) and 20.8 ± 7.22 µg/mL (≈ 141 µM).
As for `C=C1CCC2CC1C2(C)C` (stereo not drawn) [β-pinene], the MIC turned out to be 41.7 ± 14.4 µg/mL (≈ 306 µM) in data set [1] and 10.4 ± 3.61 µg/mL (≈ 76.4 µM) in data set [2] (setting [6]).
For `CC(C)=CCC/C(C)=C/CO` [Geraniol], the MIC in data set [1] turned out to be 12.5 µg/mL (≈ 81 µM). In addition, in data set [2] (setting [6]), the “Antimycobacterial activity, M. tuberculosis MIC” value is given as 12.50 ± 0.00^EFG μg/mL and the MIC turned out to be 12.5 µg/mL (≈ 81 µM).
Turning to `CC1=CCC(=C(C)C)CC1` [Terpinolene], the MIC in data set [1] came out at 33.3 ± 14.4 µg/mL (≈ 245 µM); in data set [2] (setting [6]) it was 8.33 ± 3.61 µg/mL (≈ 61.1 µM).
With `CC(C)=CCCC(C)CCO` (stereo not drawn) [β-Citronellol], the MIC in data set [1] stood at 10.4 ± 3.61 µg/mL (≈ 66.6 µM). Besides, in data set [2] (setting [6]), the “Antimycobacterial activity, M. tuberculosis MIC” value was 6.25 ± 0.00^FG μg/mL and the MIC came to 6.25 µg/mL (≈ 40 µM).
Consider `Cc1ccc(C(C)C)c(O)c1` [Thymol], for which, in data set [1], the “Antimycobacterial activity, M. bovis MIC” value was 2.02 ± 0.88^E μg/mL and the MIC is 2.02 µg/mL (≈ 13.4 µM). The “CC50 concentration higher than the concentration needed for mycobacterial elimination” value in data set [3] is listed as “approximately 500 fold”. Further, in data set [4], the CC50 at 24 h was 483 ± 28.9 µg/mL (≈ 3220 µM) and the CC90 at 24 h was 1130 ± 115 µg/mL (≈ 7540 µM). In data set [2] (setting [6]), the “Antimycobacterial activity, M. tuberculosis MIC” value is 0.78 ± 0.01^G μg/mL and the MIC turned out to be 0.78 µg/mL (≈ 5.19 µM).
For the compound `NNC(=O)c1ccncc1` [Isoniazid, reference compound], the MIC in data set [1] is 0.16 ± 0.3 µg/mL (≈ 1.17 µM); in data set [2] (H37RV) it was 0.26 ± 0.01 µg/mL (≈ 1.9 µM).
Take `C=CCc1ccc(O)c(OC)c1` [Eugenol]: the values for the MIC in data set [1] and in data set [2] (setting [6]) were 20.8 ± 7.22 µg/mL (≈ 127 µM) and 25 µg/mL (≈ 152 µM), respectively.
Regarding `C=C1CC/C=C(\C)CC[C@@H]2[C@@H]1CC2(C)C` [β-Caryophyllene], the MIC in data set [1] and in data set [2] (setting [6]) was 100 µg/mL (≈ 489 µM) in each case.
Take `COc1ccc(C=O)cc1` [p-Anisaldehyde]: the MIC in data set [1] was determined as 10.4 ± 3.61 µg/mL (≈ 76.5 µM); in data set [2] (setting [6]), 4.16 ± 1.81 µg/mL (≈ 30.6 µM).
Turning to `CC(C)c1ccc(C=O)cc1` [Cuminaldehyde], the MIC was found to be 20.8 ± 7.22 µg/mL (≈ 141 µM) in data set [1] and 10.4 ± 3.61 µg/mL (≈ 70.2 µM) in data set [2] (setting [6]).
Turning to `CC(=O)OC/C=C(\C)CC/C=C(\C)CC/C=C(\C)CCC=C(C)C` [geranylgeranyl acetate], the “MIC against M. tuberculosis” value in data set [5] was 3.13 µg/mL.
`CO[C@H]1/C=C/O[C@@]2(C)Oc3c(C)c(O)c4c(O)c(c(/C=N/N5CCN(C)CC5)c(O)c4c3C2=O)NC(=O)/C(C)=C\C=C\[C@H](C)[C@H](O)[C@@H](C)[C@@H](O)[C@@H](C)[C@H](OC(C)=O)[C@@H]1C` [Rifampicin, reference compound]: the values for the MIC in data set [1] and in data set [2] (setting [6]) were 0.5 ± 0.01 µg/mL (≈ 0.608 µM) and 0.6 ± 0.14 µg/mL (≈ 0.729 µM), respectively.
Regarding `C=CC(=C)CCC=C(C)C` [Myrcene], the MIC in data set [1] is 33.3 ± 14.4 µg/mL (≈ 245 µM); in data set [2] (setting [6]), 25 µg/mL (≈ 184 µM). Also, in data set [2] (setting [6]), the “Antimycobacterial activity, M. tuberculosis MIC” value is 25.00 ± 0.00^CDEF μg/mL.
Consider `CC1=CCC2C(C1)C2(C)C` (centres unmarked) [3-Carene], for which the MIC stood at 33.3 ± 14.4 µg/mL (≈ 245 µM) in data set [1] and 16.7 ± 7.22 µg/mL (≈ 122 µM) in data set [2] (setting [6]).
`O=C(O)/C=C/c1ccccc1` [Cinnamic Acid]: in data set [1], the “Antimycobacterial activity, M. bovis MIC” value is 7.29 ± 4.73^DE μg/mL and the MIC is 7.29 µg/mL (≈ 49.2 µM). In data set [2] (setting [6]), the “Antimycobacterial activity, M. tuberculosis MIC” value is 8.16 ± 3.32^FG μg/mL and the MIC came to 8.16 µg/mL (≈ 55.1 µM).
As for `CC12CCC(CC1)C(C)(C)O2` [Eucalyptol], the MIC in data set [1] and in data set [2] (setting [6]) was 41.7 ± 14.4 µg/mL (≈ 270 µM) each time.
Consider `CC(C)=CCC/C(C)=C/CC/C(C)=C/CC/C(C)=C/CO` [Geranylgeraniol], for which, in data set [5], the “MIC against M. tuberculosis” value is 1.56 µg/mL (≈ 5.37 µM).
For the compound `C=CC(C)(O)CCC=C(C)C` (centres unmarked) [Linalool], the MIC in data set [1] is 41.7 ± 14.4 µg/mL (≈ 270 µM); in data set [2] (setting [6]), 33.3 ± 14.4 µg/mL (≈ 216 µM).
Taken in the same sequence, the figures for `CC1=CC=C(C(C)C)CC1` [α-Terpinene] were 20.8 ± 7.22 µg/mL (≈ 153 µM) and 10.4 ± 3.61 µg/mL (≈ 76.4 µM).
Turning to `CC1CCC(C(C)C)C(O)C1` (centres unmarked) [Menthol], the MIC in data set [1] came out at 83.3 ± 14.4 µg/mL (≈ 533 µM). Further, in data set [4], the midpoint of cytotoxicity, the CC50 at 24 h, lay at 1450 ± 180 µg/mL (≈ 9280 µM) and the CC90 at 24 h came out at 2600 ± 304 µg/mL (≈ 16600 µM). The MIC in data set [2] (setting [6]) worked out at 41.7 ± 14.4 µg/mL (≈ 267 µM).
On to `Cc1ccc(C(C)C)cc1` [p-Cymene], for which, in data set [1], the MIC is 91.7 ± 14.4 µg/mL (≈ 683 µM). For the same compound, in data set [4], half-maximal cytotoxicity (CC50 at 24 h) was put at 1170 ± 44.3 µg/mL (≈ 8690 µM) and the CC90 at 24 h was 2200 ± 86.6 µg/mL (≈ 16400 µM). The MIC in data set [2] (setting [6]) came to 91.7 ± 14.4 µg/mL (≈ 683 µM).

The values are drawn from paper PMC4579641 (BMC Complementary and Alternative Medicine, 2015).
